Experiments:
[1] = molecular target: hemolysin alpha from Staphylococcus aureus (Staphylococcus aureus, UniProt P09616); experiment: cell-based
[2] = molecular target: S. aureus Alpha hemolysin (Staphylococcus aureus, UniProt P09616); experiment: cell-based
S. aureus Alpha hemolysin, sequence (P09616 27-319 limits assumed): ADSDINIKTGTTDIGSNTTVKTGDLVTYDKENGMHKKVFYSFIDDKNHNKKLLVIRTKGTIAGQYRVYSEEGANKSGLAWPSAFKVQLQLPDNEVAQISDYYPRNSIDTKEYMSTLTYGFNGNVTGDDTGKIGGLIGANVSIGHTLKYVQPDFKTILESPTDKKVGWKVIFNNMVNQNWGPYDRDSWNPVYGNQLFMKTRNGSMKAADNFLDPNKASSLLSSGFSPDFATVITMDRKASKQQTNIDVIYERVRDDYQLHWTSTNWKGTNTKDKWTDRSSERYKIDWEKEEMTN

hemolysin alpha from Staphylococcus aureus, sequence (P09616 27-319 limits assumed): as above

## Cc1cc2[nH]c(=O)c(=O)[nH]c2cc1S(=O)(=O)Nc1ccc(-n2cncn2)cc1 [Compound 265, 7-methyl-2,3-dioxo-N-[4-(1,2,4-triazol-1-yl)phenyl]-1,4-dihydroquinoxaline-6-sulfonamide]
[1]
  EC50: 1000 to 3500 nM
[2]; A549-LDH Assay activity
  EC50: 1000 to 6000 nM

## Cc1cc2[nH]c(=O)c(=O)[nH]c2cc1S(=O)(=O)Nc1ccc(-c2ccc3c(c2)CCCN3)c(Cl)c1 [Compound 343, N-[3-chloro-4-(1,2,3,4-tetrahydroquinolin-6-yl)phenyl]-7-methyl-2,3-dioxo-1,4-dihydroquinoxaline-6-sulfonamide]
[1]
  EC50: < 30 nM
[2]; A549-LDH Assay activity
  EC50: 100 to 1000 nM

## Cc1cc2[nH]c(=O)c(=O)[nH]c2cc1S(=O)(=O)Nc1ccc(C2CC2)cc1 [drawing 470 (R^2 = CH3)]
[1]
  EC50: 63 nM
[2]; LDH Assay EC50
  EC50: 18 nM

## Cc1cc2[nH]c(=O)c(=O)[nH]c2cc1S(=O)(=O)Nc1ccc(-c2ccoc2)c(Cl)c1 [Compound 22, N-(3-chloro-4-(furan-3-yl)phenyl)-7-methyl-2,3-dioxo-1,2,3,4-tetrahydroquinoxaline-6-sulfonamide]
[1]
  IC50: < 30 nM
[2]; A549-LDH Assay activity
  EC50: 100 to 1000 nM

## O=c1[nH]c2cc(F)c(S(=O)(=O)Nc3ccc(-c4cccc(Cl)c4)c(Cl)c3)cc2[nH]c1=O [Compound 65, N-(2,3′-dichloro-[1,1′-biphenyl]-4-yl)-7-fluoro-2,3-dioxo-1,2,3,4-tetrahydroquinoxaline-6-sulfonamide]
[1]
  IC50: 30 to 100 nM
[2]; A549-LDH Assay activity
  EC50: 1000 to 6000 nM

## Cc1cc(NS(=O)(=O)c2cc3[nH]c(=O)c(=O)[nH]c3cc2Cl)ccc1Br [Compound 141, N-(4-bromo-3-methylphenyl)-7-chloro-2,3-dioxo-1,2,3,4-tetrahydroquinoxaline-6-sulfonamide]
[1]
  IC50: 100 to 1000 nM
[2]; A549-LDH Assay activity
  EC50: 100 to 1000 nM

## Cc1cc2[nH]c(=O)c(=O)[nH]c2cc1S(=O)(=O)Nc1ccc(Cc2ccccc2)c(Cl)c1 [Compound 321, N-(4-benzyl-3-chloro-phenyl)-7-methyl-2,3-dioxo-1,4-dihydroquinoxaline-6-sulfonamide]
[1]
  EC50: 100 to 1000 nM
[2]; A549-LDH Assay activity
  EC50: 100 to 1000 nM

## COc1ccc(-c2ncc(NS(=O)(=O)c3cc4[nH]c(=O)c(=O)[nH]c4cc3C)cc2Cl)cc1F [Compound 303, N-[5-chloro-6-(3-fluoro-4-methoxy-phenyl)-3-pyridyl]-7-methyl-2,3-dioxo-1,4-dihydroquinoxaline-6-sulfonamide]
[1]
  EC50: 100 to 1000 nM
[2]; A549-LDH Assay activity
  EC50: 100 to 1000 nM

## Cc1cc2[nH]c(=O)c(=O)[nH]c2cc1S(=O)(=O)Nc1ccc(C2COC2)cc1 [Compound 384, 7-methyl-N-[4-(oxetan-3-yl)phenyl]-2,3-dioxo-1,4-dihydroquinoxaline-6-sulfonamide]
[1]
  EC50: 1000 to 3500 nM
[2]; A549-LDH Assay activity
  EC50: 100 to 1000 nM

## Cc1cc2[nH]c(=O)c(=O)[nH]c2cc1S(=O)(=O)Nc1ccc2ccccc2c1 [Compound 60, 7-methyl-N-(naphthalen-2-yl)-2,3-dioxo-1,2,3,4-tetrahydroquinoxaline-6-sulfonamide]
[1]
  IC50: 30 to 100 nM
[2]; A549-LDH Assay activity
  EC50: 30 to 100 nM

## Cc1cc2[nH]c(=O)c(=O)[nH]c2cc1S(=O)(=O)Nc1ccc(-c2ccc3c(c2)N(C)C(=O)CO3)c(Cl)c1 [Compound 356, N-[3-chloro-4-(4-methyl-3-oxo-1,4-benzoxazin-6-yl)phenyl]-7-methyl-2,3-dioxo-1,4-dihydroquinoxaline-6-sulfonamide]
[1]
  EC50: < 30 nM
[2]; A549-LDH Assay activity
  EC50: 30 to 100 nM

## Cc1ccccc1-c1ccc(NS(=O)(=O)c2cc3[nH]c(=O)c(=O)[nH]c3cc2C)cc1Cl [Compound 90, N-(2-chloro-2′-methyl-[1,1′-biphenyl]-4-yl)-7-methyl-2,3-dioxo-1,2,3,4-tetrahydroquinoxaline-6-sulfonamide]
[1]
  IC50: 100 to 1000 nM
[2]; A549-LDH Assay activity
  EC50: 100 to 1000 nM

## Cc1cc(NS(=O)(=O)c2cc3[nH]c(=O)c(=O)[nH]c3cc2Cl)ccc1-c1ccoc1 [Compound 88, 7-chloro-N-(4-(furan-3-yl)-3-methylphenyl)-2,3-dioxo-1,2,3,4-tetrahydroquinoxaline-6-sulfonamide]
[1]
  IC50: 30 to 100 nM
[2]; A549-LDH Assay activity
  EC50: 100 to 1000 nM

## CCCc1ccc(NS(=O)(=O)c2cc3[nH]c(=O)c(=O)[nH]c3cc2Cl)cc1 [Compound 55, 7-chloro-2,3-dioxo-N-(4-propylphenyl)-1,2,3,4-tetrahydroquinoxaline-6-sulfonamide]
[1]
  IC50: 30 to 100 nM
[2]; A549-LDH Assay activity
  EC50: 30 to 100 nM

## Cc1cc2[nH]c(=O)c(=O)[nH]c2cc1S(=O)(=O)Nc1ccc(-c2cc(F)cc(F)c2)c(Cl)c1 [Compound 309, N-[3-chloro-4-(3,5-difluorophenyl)phenyl]-7-methyl-2,3-dioxo-1,4-dihydroquinoxaline-6-sulfonamide]
[1]
  EC50: < 30 nM
[2]; A549-LDH Assay activity
  EC50: 100 to 1000 nM

## Cc1cc2[nH]c(=O)c(=O)[nH]c2cc1S(=O)(=O)Nc1ccc(-c2cc(F)cc(C(N)=O)c2)c(Cl)c1 [Compound 390, 3-[2-chloro-4-[(7-methyl-2,3-dioxo-1,4-dihydroquinoxalin-6-yl)sulfonylamino]phenyl]-5-fluoro-benzamide]
[1]
  EC50: < 30 nM
[2]; A549-LDH Assay activity
  EC50: < 30 nM

## CC(C)=Cc1ccc(NS(=O)(=O)c2cc3[nH]c(=O)c(=O)[nH]c3cc2C)cc1Cl [Compound 296, N-[3-chloro-4-(2-methylprop-1-enyl)phenyl]-7-methyl-2,3-dioxo-1,4-dihydroquinoxaline-6-sulfonamide]
[1]
  EC50: 30 to 100 nM
[2]; A549-LDH Assay activity
  EC50: 30 to 100 nM

## Cc1cc2[nH]c(=O)c(=O)[nH]c2cc1S(=O)(=O)Nc1ccc(OC(F)F)cc1 [Compound 394, N-[4-(difluoromethoxy)phenyl]-7-methyl-2,3-dioxo-1,4-dihydroquinoxaline-6-sulfonamide]
[1]
  EC50: 100 to 1000 nM
[2]; A549-LDH Assay activity
  EC50: 30 to 100 nM

## COc1cc2[nH]c(=O)c(=O)[nH]c2cc1S(=O)(=O)Nc1ccc(OC(F)F)cc1 [Compound 391, N-[4-(difluoromethoxy)phenyl]-7-methoxy-2,3-dioxo-1,4-dihydroquinoxaline-6-sulfonamide]
[1]
  EC50: 1000 to 3500 nM
[2]; A549-LDH Assay activity
  EC50: 100 to 1000 nM

## Cc1cc2[nH]c(=O)c(=O)[nH]c2cc1S(=O)(=O)Nc1cnc(-c2cncc(Cl)c2)c(Cl)c1 [Compound 279, N-[5-chloro-6-(5-chloro-3-pyridyl)-3-pyridyl]-7-methyl-2,3-dioxo-1,4-dihydroquinoxaline-6-sulfonamide]
[1]
  EC50: 100 to 1000 nM
[2]; A549-LDH Assay activity
  EC50: 100 to 1000 nM

## Cc1cccc(-c2c(C)cc(NS(=O)(=O)c3cc4[nH]c(=O)c(=O)[nH]c4cc3C)cc2C)c1 [Compound 175, 7-methyl-2,3-dioxo-N-(2,3′,6-trimethyl-[1,1′-biphenyl]-4-yl)-1,2,3,4-tetrahydroquinoxaline-6-sulfonamide]
[1]
  IC50: 100 to 1000 nM
[2]; A549-LDH Assay activity
  EC50: 100 to 1000 nM

## Cc1cc2[nH]c(=O)c(=O)[nH]c2cc1S(=O)(=O)Nc1cc(C)c(-c2cccc(N(C)C)c2)c(C)c1 [Compound 59, N-(3′-(dimethylamino)-2,6-dimethyl-[1,1′-biphenyl]-4-yl)-7-methyl-2,3-dioxo-1,2,3,4-tetrahydroquinoxaline-6-sulfonamide]
[1]
  IC50: 30 to 100 nM
[2]; A549-LDH Assay activity
  EC50: 100 to 1000 nM

## O=c1[nH]c2cc(Br)c(S(=O)(=O)Nc3ccc(C4CC4)cc3)cc2[nH]c1=O [Compound 96, 7-bromo-N-(4-cyclopropylphenyl)-2,3-dioxo-1,2,3,4-tetrahydroquinoxaline-6-sulfonamide]
[1]
  IC50: 100 to 1000 nM

## O=c1[nH]c2cc(OC(F)(F)F)c(S(=O)(=O)Nc3ccc(OC(F)(F)F)cc3)cc2[nH]c1=O [Compound 192, 2,3-dioxo-7-(trifluoromethoxy)-N-(4-(trifluoromethoxy)phenyl)-1,2,3,4-tetrahydroquinoxaline-6-sulfonamide]
[1]
  EC50: 100 to 1000 nM

## Cc1cc2[nH]c(=O)c(=O)[nH]c2cc1S(=O)(=O)Nc1ccc(N2CCCOCC2)c(Cl)c1 [Compound 208, N-(3-chloro-4-(1,4-oxazepan-4-yl)phenyl)-7-methyl-2,3-dioxo-1,2,3,4-tetrahydroquinoxaline-6-sulfonamide]
[1]
  EC50: 1000 to 3500 nM

## Cc1cc2[nH]c(=O)c(=O)[nH]c2cc1S(=O)(=O)Nc1ccc2c(c1)OC(F)(F)O2 [Compound 241, N-(2,2-difluorobenzo[d][1,3]dioxol-5-yl)-7-methyl-2,3-dioxo-1,2,3,4-tetrahydroquinoxaline-6-sulfonamide]
[1]
  EC50: 100 to 1000 nM

## Cc1cc2[nH]c(=O)c(=O)[nH]c2cc1S(=O)(=O)Nc1ccc(C#N)cc1 [Compound 129, N-(4-cyanophenyl)-7-methyl-2,3-dioxo-1,2,3,4-tetrahydroquinoxaline-6-sulfonamide]
[1]
  IC50: 1000 to 3500 nM

## O=c1[nH]c2cc3c(cc2[nH]c1=O)S(=O)(=O)N(c1ccc(OC(F)(F)F)cc1)CCO3 [Compound 237]
[1]
  EC50: 100 to 1000 nM

## Cc1cc(NS(=O)(=O)c2cc3[nH]c(=O)c(=O)[nH]c3cc2Cl)cc(C)c1-c1ccoc1 [Compound 156, 7-chloro-N-(4-(furan-3-yl)-3,5-dimethylphenyl)-2,3-dioxo-1,2,3,4-tetrahydroquinoxaline-6-sulfonamide]
[1]
  IC50: 100 to 1000 nM

## Cc1cc(NS(=O)(=O)c2cc3[nH]c(=O)c(=O)[nH]c3cc2F)cc(C)c1-c1ccncc1 [Compound 167, N-(3,5-dimethyl-4-(pyridin-4-yl)phenyl)-7-fluoro-2,3-dioxo-1,2,3,4-tetrahydroquinoxaline-6-sulfonamide]
[1]
  IC50: 1000 to 3500 nM

## Cc1cc(NS(=O)(=O)c2cc3[nH]c(=O)c(=O)[nH]c3cc2F)ccc1-c1ccncc1 [Compound 169, 7-fluoro-N-(3-methyl-4-(pyridin-4-yl)phenyl)-2,3-dioxo-1,2,3,4-tetrahydroquinoxaline-6-sulfonamide]
[1]
  IC50: 100 to 1000 nM

## COc1cc2[nH]c(=O)c(=O)[nH]c2cc1S(=O)(=O)Nc1ccc(OC(F)(F)F)cc1 [Compound 193, 7-methoxy-2,3-dioxo-N-(4-(trifluoromethoxy)phenyl)-1,2,3,4-tetrahydroquinoxaline-6-sulfonamide]
[1]
  EC50: 100 to 1000 nM

## Cc1ccc(NS(=O)(=O)c2cc3[nH]c(=O)c(=O)[nH]c3cc2C)cc1 [Compound 179, 7-methyl-2,3-dioxo-N-(p-tolyl)-1,2,3,4-tetrahydroquinoxaline-6-sulfonamide]
[1]
  IC50: 100 to 1000 nM

## CC(C)c1cc2[nH]c(=O)c(=O)[nH]c2cc1S(=O)(=O)Nc1ccc(-c2ccncc2)c(Cl)c1 [Compound 159, N-(3-chloro-4-(pyridin-4-yl)phenyl)-7-isopropyl-2,3-dioxo-1,2,3,4-tetrahydroquinoxaline-6-sulfonamide]
[1]
  IC50: 1000 to 3500 nM

— patent publication US20240376084A1, “INHIBITORS OF ALPHA-HEMOLYSIN OF STAPHYLOCOCCUS AUREUS” (Helmholtz-Zentrum Fur Infektionsforschung GmbH, priority 2021, published 2024)
